Data on 26 compounds can be found in patent US20060035925A1, “SUBSTITUTED 4H-CHROMENES AND ANALOGS AS ACTIVATORS OF CASPASES AND INDUCERS OF APOPTOSIS AND THE USE THEREOF” (Cytovia, Inc., priority 1999, published 2006).

Like-named read-outs stand apart in the source and are kept apart here.

By EC50 is commonly meant the midpoint of the concentration-response curve.

In assay [1] the test system is Human breast cancer cell line ZR-75-1. Put plainly: Caspase cascade activation assay (N-(Ac-DEVD)-N'-ethoxycarbonyl-R110 fluorogenic substrate) in ZR-75-1 cells. Type of assay: cell-based. Conditions: for Caspase activity (Ratio) ZR-75-1: 24 h incubation with compound, ratio of net RFU (T=3 h) of test compound to control. The procedure, abridged:
(§1)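 Cells were exposed for 24 h at 37 °C to test compound at 0.016–1 μM final. Lysed with lysolecithin buffer (pH 7.2, DTT) containing 20 μM Ac-DEVD-R110 substrate, and fluorescence (ex 485/em 530 nm) read at 0 and 3 h at room temperature. EC50 from sigmoidal fit of net RFU ratio to control.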

Assay [2] has as its system Human breast cancer cell line T-47D. Description: Caspase cascade activation assay (N-(Ac-DEVD)-N'-ethoxycarbonyl-R110 fluorogenic substrate) in T-47D cells. Type of assay: cell-based. The following applies: for Caspase activity (Ratio) T-47D: 24 h incubation with compound, ratio of net RFU (T=3 h) of test compound to control. In short, it runs like this:
as §1

Setting [3] is: Homo sapiens, ZR-75-1, 24 h, ZR-75-1 cells, 24 h incubation, sigmoidal dose-response, read-out: Caspase potency EC50 (nM) ZR-75-1.
Setting [4] is: Homo sapiens, T47D, 24 h, 24 h incubation, sigmoidal dose-response, read-out: Caspase potency EC50 (nM) T-47D.
[5] abbreviates: Homo sapiens, ZR-75-1, ZR-75-1 cells, additional compounds, Table II, read-out: Caspase potency EC50 (nM) ZR-75-1, Table II.
[6] abbreviates: ZR-75-1 cells, additional compounds, Table II.
Where [7] appears, read: Homo sapiens, T47D, additional compounds, Table II, read-out: Caspase potency EC50 (nM) T-47D, Table II.
The mark [8] stands for this setting: ZR-75-1 cells, 24 h incubation, sigmoidal dose-response, read-out: Caspase potency EC50 (nM) ZR-75-1.
[9] abbreviates: 24 h incubation, sigmoidal dose-response, read-out: Caspase potency EC50 (nM) T-47D.

`COc1cc(C2(C)C(C#N)=C(N)Oc3cc(N(C)C)ccc32)cc(Br)c1OC` (centres unmarked) [Example 68A, 2-Amino-3-cyano-7-dimethylamino-4-(3-bromo-4,5-dimethoxyphenyl)-4-methylchromene]: the figures for the EC50 in assay [1] (setting [3]) and in assay [2] (setting [4]) were 1470 nM and 1980 nM, respectively. Moreover, the “Caspase activity (Ratio) ZR-75-1” value in assay [1] (ZR-75-1 cells) was 6.5. For the same compound, the “Caspase activity (Ratio) T-47D” value in assay [2] came to 6.8.
Consider `COc1cc(C2C(C#N)=C(N)Oc3cc(O)ccc32)cc(OC)c1OC` (centres unmarked) [2-Amino-3-cyano-7-hydroxy-4-(3,4,5-trimethoxyphenyl)-4H-chromene], for which the results for the EC50 in assay [1] (setting [5]) and in assay [2] (setting [7]) were 208 nM and 456 nM, respectively. For the same compound, in assay [1] (setting [6]), the “Caspase activity (Ratio) ZR-75-1, Table II” value was 10.3. In addition, the “Caspase activity (Ratio) T-47D, Table II” value in assay [2] (additional compounds, Table II) was found to be 7.3.
Regarding `COc1ccc2c(c1)OC(N)=C(C#N)C2c1cc(Cl)cc(Cl)c1` (centres unmarked) [Example 2E, 2-Amino-3-cyano-7-methoxy-4-(3,5-dichlorophenyl)-4H-chromene], the EC50 amounted to 29 nM in assay [1] (setting [3]) and 39 nM in assay [2] (setting [4]). In addition, in assay [1] (ZR-75-1 cells), the “Caspase activity (Ratio) ZR-75-1” value is 4.4. The “Caspase activity (Ratio) T-47D” value in assay [2] was 4.1.
The matching figures for `COc1cc(C2C(C#N)=C(N)Oc3c2ccc(N)c3N)cc(Br)c1OC` (centres unmarked) [Example 45, 3-Cyano-2,7,8-triamino-4-(3-bromo-4,5-dimethoxyphenyl)-4H-chromene]: 35.4 nM, 41.8 nM, 11.9 and 6.0.
Regarding `CNC1=C(C#N)C(c2cc(Br)c(OC)c(OC)c2)c2ccc3ccn(C)c3c2O1` (centres unmarked) [Example 76, 3-Cyano-4-(3-bromo-4,5-dimethoxyphenyl)-2-methylamino-9-methyl-4H-pyrrolo[3,2-h]chromene], the EC50 in assay [1] (setting [3]) is 4100 nM; in assay [2] (setting [4]) it was over 10000 nM. Further, in assay [1] (ZR-75-1 cells), the “Caspase activity (Ratio) ZR-75-1” value is on record as 2.3. In addition, in assay [2], the “Caspase activity (Ratio) T-47D” value is 2.0.
On to `COc1ccc2c(c1)OC(N)=C(C#N)C2c1ccccc1` (centres unmarked) [Example 26, 2-Amino-3-cyano-7-methoxy-4-phenyl-4H-chromene], for which the EC50 in assay [1] (setting [3]) came out at 82 nM; in assay [2] (setting [4]), 140 nM. Further, the “Caspase activity (Ratio) ZR-75-1” value in assay [1] (ZR-75-1 cells) was 6.4. Also, the “Caspase activity (Ratio) T-47D” value in assay [2] is listed as 3.5.
In the same order, the values of `N#CC1=C(N)OC2C3=CC=NC3=CC=C2C1c1ccccc1` (centres unmarked) [Example 56, 2-Amino-3-cyano-4-phenyl-4H-indolo[4,5-b]pyran] are 157 nM, 252 nM, 7.7 and 8.3.
As to `COc1cccc(C2C(C#N)=C(N)Oc3cc(OC)ccc32)c1` (centres unmarked) [Example 4, 2-Amino-3-cyano-7-methoxy-4-(3-methoxyphenyl)-4H-chromene], the EC50 in assay [1] (setting [3]) worked out at 33 nM; in assay [2] (setting [4]) it was 37 nM. Also, the “Caspase activity (Ratio) ZR-75-1” value in assay [1] (ZR-75-1 cells) is listed as 5.6. In addition, the “Caspase activity (Ratio) T-47D” value in assay [2] is listed as 8.1.
For the compound `COc1cccc(C2C(C#N)=C(N)Oc3c2ccc2nccnc32)c1` (centres unmarked) [Example 78, 2-Amino-3-cyano-4-(3-methoxyphenyl)-4H-pyrazino[2,3-h]chromene], the “Caspase activity (Ratio) ZR-75-1” value in assay [1] (ZR-75-1 cells) is 3.6. Moreover, the EC50 in assay [1] (setting [8]) was 537 nM; in assay [2] (setting [9]), over 1000 nM. Also, in assay [2], the “Caspase activity (Ratio) T-47D” value is 1.8.
On to `COc1cncc(C2C3=CC=C4N=CC=C4C3OC(N)=C2C#N)c1` (centres unmarked) [Example 41, 2-Amino-3-cyano-4-(5-methoxy-pyridin-3-yl)-4H-indolo[4,5-b]pyran], for which the half-maximal effective concentration (EC50) worked out at 6.6 nM in assay [1] (setting [3]) and 13.9 nM in assay [2] (setting [4]). Further, the “Caspase activity (Ratio) ZR-75-1” value in assay [1] (ZR-75-1 cells) was found to be 7.2. In addition, in assay [2], the “Caspase activity (Ratio) T-47D” value was found to be 6.8.
In the same order, the values of `N#CC1=C(N)OC2C3=CC=NC3=CC=C2C1c1cnc2ccccc2n1` (centres unmarked) [Example 59, 2-Amino-3-cyano-4-(quinoxalin-2-yl)-4H-indolo[4,5-b]pyran] are over 10000 nM, over 10000 nM, 1.2 and 1.1.
Regarding `N#CC1=C(N)OC2C3=CC=NC3=CC=C2C1c1cncc(C#N)c1` (centres unmarked) [Example 57, 2-Amino-3-cyano-4-(5-cyano-pyridin-3-yl)-4H-indolo[4,5-b]pyran], the EC50 in assay [1] (setting [3]) was 27.9 nM; in assay [2] (setting [4]), 58 nM. Further, the “Caspase activity (Ratio) ZR-75-1” value in assay [1] (ZR-75-1 cells) is on record as 7.3. Moreover, the “Caspase activity (Ratio) T-47D” value in assay [2] is recorded as 7.2.
Take `COc1cc(C2C(C#N)=C(N)Oc3cc(-n4cccc4)ccc32)cc(Br)c1OC` (centres unmarked) [Example 67, 2-Amino-3-cyano-7-pyrrole-4-(3-bromo-4,5-dimethoxyphenyl)-4H-chromene]: in assay [1] (ZR-75-1 cells), the “Caspase activity (Ratio) ZR-75-1” value was determined as 6.9. The EC50 in assay [1] (setting [8]) was determined as 148 nM; in assay [2] (setting [9]), 349 nM. In addition, the “Caspase activity (Ratio) T-47D” value in assay [2] came out at 9.2.
The matching figures for `COc1cc(C2C(C#N)=C(N)Oc3c2ccc2nccnc32)cc(Br)c1OC` (centres unmarked) [Example 79, 2-Amino-3-cyano-4-(3-bromo-4,5-dimethoxy-phenyl)-4H-pyrazino [2,3-h]chromene]: 10.2, 103 nM, 209 nM and 8.3.
As to `N#CC1=C(N)Nc2ccccc2C1c1ccccc1` (centres unmarked) [Example 71, 2-Amino-3-cyano-4-phenyl-1,4-dihydroquinoline], the figures for the EC50 in assay [1] (setting [3]) and in assay [2] (setting [4]) were 3720 nM and 7850 nM, respectively. Besides, the “Caspase activity (Ratio) ZR-75-1” value in assay [1] (ZR-75-1 cells) worked out at 4.1. The “Caspase activity (Ratio) T-47D” value in assay [2] stood at 3.1.
For `Cc1cncc(C2C3=CC=C4N=CC=C4C3OC(N)=C2C#N)n1` (centres unmarked) [Example 58, 2-Amino-3-cyano-4-(6-methyl-pyrazin-2-yl)-4H-indolo[4,5-b]pyran], the values for the EC50 in assay [1] (setting [3]) and in assay [2] (setting [4]) were 1630 nM and 2900 nM, respectively. Moreover, the “Caspase activity (Ratio) ZR-75-1” value in assay [1] (ZR-75-1 cells) was determined as 7.0. For the same compound, the “Caspase activity (Ratio) T-47D” value in assay [2] is listed as 4.1.
Turning to `COc1ccc2c(c1)OC(N)=C(C#N)C2c1cc(OC)c(OC)c(OC)c1` (centres unmarked) [Example 3, 2-Amino-3-cyano-7-methoxy-4-(3,4,5-trimethoxyphenyl)-4H-chromene], the results for the EC50 in assay [1] (setting [3]) and in assay [2] (setting [4]) were 16 nM and 29 nM, respectively. Moreover, in assay [1] (ZR-75-1 cells), the “Caspase activity (Ratio) ZR-75-1” value is reported as 4.5. Besides, the “Caspase activity (Ratio) T-47D” value in assay [2] was 8.4.
Regarding `COc1cc(C2C(C#N)=C(N)Oc3c2ccc2[nH]c(C)nc32)cc(Br)c1OC` (centres unmarked) [Example 65, 2-Amino-3-cyano-4-(3-bromo-4,5-dimethoxy-phenyl)-8-methyl-4H-imidazo[4,5-h]-chromene], the “Caspase activity (Ratio) ZR-75-1” value in assay [1] (ZR-75-1 cells) came to 6.0. In addition, the values for the EC50 in assay [1] (setting [8]) and in assay [2] (setting [9]) were 570 nM and over 1000 nM, respectively. The “Caspase activity (Ratio) T-47D” value in assay [2] is given as 1.5.
For the compound `CC1(c2ccccc2)C(C#N)=C(N)Oc2ccccc21` (centres unmarked) [Example 68B, 2-Amino-3-cyano-4-phenyl-4-methylchromene], the EC50 in assay [1] (setting [3]) and in assay [2] (setting [4]) was over 10000 nM each time. Besides, the “Caspase activity (Ratio) ZR-75-1” value in assay [1] (ZR-75-1 cells) is given as 1.8. In assay [2], the “Caspase activity (Ratio) T-47D” value is 1.0.
In the case of `N#CC1=C(N)Oc2cc(N)ccc2C1c1cccc(I)c1` (centres unmarked) [2,7-Diamino-3-cyano-4-(3-iodophenyl)-4H-chromene], the EC50 in assay [1] (setting [5]) was 18 nM; in assay [2] (setting [7]), 33 nM. In addition, the “Caspase activity (Ratio) ZR-75-1, Table II” value in assay [1] (setting [6]) was 5.1. In addition, the “Caspase activity (Ratio) T-47D, Table II” value in assay [2] (additional compounds, Table II) amounted to 4.8.
With `COc1cc(C2C(C#N)=C(N)Oc3cc(N4CCCC4)ccc32)cc(Br)c1OC` (centres unmarked) [Example 66A, 2-Amino-3-cyano-7-pyrrolidine-4-(3-bromo-4,5-dimethoxyphenyl)-4H-chromene], the “Caspase activity (Ratio) ZR-75-1” value in assay [1] (ZR-75-1 cells) is listed as 6.0. The EC50 in assay [1] (setting [8]) turned out to be 79.4 nM; in assay [2] (setting [9]) it was 110 nM. Besides, in assay [2], the “Caspase activity (Ratio) T-47D” value is reported as 3.7.
In the case of `N#CC1=C(N)Oc2cc(N)ccc2C1c1cc(F)cc(F)c1` (centres unmarked) [Example 2O, 2-Amino-3-cyano-7-amino-4-(3,5-difluorophenyl)-4H-chromene], the EC50 in assay [1] (setting [3]) was found to be 193 nM; in assay [2] (setting [4]), 323 nM. For the same compound, the “Caspase activity (Ratio) ZR-75-1” value in assay [1] (ZR-75-1 cells) is reported as 7.1. Besides, in assay [2], the “Caspase activity (Ratio) T-47D” value came to 6.4.
The matching figures for `COc1ccc2c(c1)OC(N)=C(C#N)C2c1cccc(C#N)c1` (centres unmarked) [Example 5, 2-Amino-3-cyano-7-methoxy-4-(3-cyanophenyl)-4H-chromene]: 46 nM, 37 nM, 7.1 and 6.9.
Regarding “2-Amino-3-ethoxycarboxyl-4-(3-bromo-4,5-dimethoxy-phenyl)-4H-indolo[4,5-b]pyran [Example 72]”, the “Caspase activity (Ratio) ZR-75-1” value in assay [1] (ZR-75-1 cells) came to 3.6. The EC50 was 567 nM in assay [1] (setting [8]) and over 1000 nM in assay [2] (setting [9]). Moreover, the “Caspase activity (Ratio) T-47D” value in assay [2] was found to be 1.2.
Turning to `N#CC1=C(N)Oc2cc(N)ccc2C1c1cccc(F)c1` (centres unmarked) [Example 2M, 2-Amino-3-cyano-7-amino-4-(3-fluorophenyl)-4H-chromene], the EC50 in assay [1] (setting [3]) worked out at 786 nM; in assay [2] (setting [4]), 1390 nM. Besides, the “Caspase activity (Ratio) ZR-75-1” value in assay [1] (ZR-75-1 cells) came out at 6.9. Moreover, the “Caspase activity (Ratio) T-47D” value in assay [2] is 5.8.
The matching figures for `N#CC1=C(N)Oc2cc(O)ccc2C1c1cccc(C#N)c1` (centres unmarked) [Example 2B, 2-Amino-3-cyano-7-hydroxy-4-(3-cyanophenyl)-4H-chromene]: over 10000 nM, over 10000 nM, 1.9 and 1.2.
